Source: PMC3878165 (Bioorganic & Medicinal Chemistry Letters, 2013)

What was measured:
melatonin MT1 receptor = melatonin MT1 receptor (Homo sapiens, UniProt P48039); format: binding
[1] = test system: Eurofins lead-profiling screen; format: binding
PLpro = PLpro (Severe acute respiratory syndrome coronavirus, UniProt P0C6U8); assay: biochemical; design: species or system SARS-CoV

Chain of melatonin MT1 receptor (P48039 whole entry): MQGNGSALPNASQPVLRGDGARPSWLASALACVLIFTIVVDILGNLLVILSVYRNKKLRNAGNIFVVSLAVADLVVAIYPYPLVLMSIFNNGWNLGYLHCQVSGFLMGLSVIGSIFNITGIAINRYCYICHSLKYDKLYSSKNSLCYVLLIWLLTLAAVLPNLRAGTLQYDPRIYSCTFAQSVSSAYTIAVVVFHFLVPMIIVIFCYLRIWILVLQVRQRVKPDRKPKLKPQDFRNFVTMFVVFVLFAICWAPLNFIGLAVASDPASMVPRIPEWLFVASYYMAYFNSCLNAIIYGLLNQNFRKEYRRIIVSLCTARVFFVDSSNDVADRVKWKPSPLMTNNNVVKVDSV

| SMILES | melatonin MT1 receptor activity in words (melatonin MT1 receptor) | Eurofins Profiler Screen result in words [1] | IC50 (PLpro) [µM] |
| --- | --- | --- | --- |
| O=C(Nc1ccc(N(Cc2ccsc2)C(=O)Cn2nnc3ccccc32)cc1)C1CC1 [16e] | modest activity | highly selective |  |
| CCC(C)(C)NC(=O)[C@@H](c1ccn(C)c1)N(C(=O)Cn1nnc2ccccc21)c1ccc(NC(C)=O)cc1 [compound 7] |  |  | > 60 |
